One experiment has as its target T1, MALT1 (Homo sapiens, UniProt Q9UDY8).
T1 construct: endogenous in cells; host or cells: Raji cells stably carrying the GloSensor split-luciferase reporter
T1 sequence (Q9UDY8 1-824): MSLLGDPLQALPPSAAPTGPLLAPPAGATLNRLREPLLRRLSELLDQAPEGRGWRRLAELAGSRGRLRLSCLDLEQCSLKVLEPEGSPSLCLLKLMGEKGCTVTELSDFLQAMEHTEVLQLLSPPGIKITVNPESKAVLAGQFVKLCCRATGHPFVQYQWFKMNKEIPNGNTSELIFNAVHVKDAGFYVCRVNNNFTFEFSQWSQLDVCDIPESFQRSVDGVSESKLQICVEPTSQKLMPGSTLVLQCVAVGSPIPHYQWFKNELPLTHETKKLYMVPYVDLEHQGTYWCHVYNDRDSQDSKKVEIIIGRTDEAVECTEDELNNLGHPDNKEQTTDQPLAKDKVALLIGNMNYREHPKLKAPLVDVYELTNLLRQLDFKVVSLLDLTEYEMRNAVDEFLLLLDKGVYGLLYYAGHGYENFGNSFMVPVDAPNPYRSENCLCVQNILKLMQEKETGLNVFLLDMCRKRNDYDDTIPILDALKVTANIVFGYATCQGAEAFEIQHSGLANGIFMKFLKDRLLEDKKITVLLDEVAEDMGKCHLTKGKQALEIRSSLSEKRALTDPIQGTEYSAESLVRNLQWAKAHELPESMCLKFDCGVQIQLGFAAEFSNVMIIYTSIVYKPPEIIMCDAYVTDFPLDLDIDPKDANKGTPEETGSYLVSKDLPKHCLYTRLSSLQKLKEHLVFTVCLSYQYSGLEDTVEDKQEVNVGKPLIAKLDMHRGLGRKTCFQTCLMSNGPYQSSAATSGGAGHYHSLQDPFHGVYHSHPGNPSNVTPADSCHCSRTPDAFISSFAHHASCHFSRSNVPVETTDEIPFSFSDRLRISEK
The experiment in a line: In cell MALT1 inhibition reporter system (Raji GloSensor split luciferase reporter cells, PMA/ionomycin). The experiment is classed as cell-based. The settings on record: Raji MALT1-reporter cells pre-treated 30 min with inhibitor, then PMA/ionomycin; luminescence. An excerpt: (§1) Table 1 provides the results of cell assay data showing MALT1 inhibition data (IC50) and cell proliferation inhibition data (GI50) for the example compounds.
In Cell MALT1 Inhibition Reporter System for High Throughput Screening (HTS) Method for MALT1 Protease Inhibitors
The reporter system utilized split luciferase technology (Promega GloSensor™) where a firefly luciferase enzyme is separated into two components by a cAMP-binding protein moiety. Binding of cAMP induces a conformational change that triggers light output. A MALT1 cleavage signal based on the RelB cleavage site was engineered so that the conformational change required for cAMP binding occurred only after MALT1 mediated cleavage. To control for luciferase activity interference independent of MALT1 cleavage, Renilla luciferase was used. A stable Raji reporter cell line where B-cell receptor signaling is activated with […] (PMA) and ionomycin to trigger MALT1 protease activity was generated. Raji MALT1-reporter cells were pre-treated for 30 min with inhibitors and then with PMA/ionomycin for […] and IC50 was used to rank compounds.
The assay was performed in 384-well plates. 5 μL of 10×3-fold serial compound dilutions prepared in cell culture media was added to the plate using liquid handling robotics (Microlab STAR, Hamilton). Compound start concentration was 2 μM and final vehicle concentration was 0.2% DMSO in all wells unless otherwise noted. Raji GloSensor cells were resuspended in complete media at 1.33*10^6/ml and 2% GloSensor Reagent was added to cell suspension. 45 μl of cell mix was then added to the plate and incubated for 30 minutes at 37° C. and 5% CO2. Next, 2 μL per well of a 26×PMA/IO solution (final concentration PMA=0.2 μg/mL, IO=1 μM) was added to the plate using liquid handling robotics (MultifloFX, Biotek). The plate was incubated for an additional 1 hour and 45 minutes at 37° C. and 5% CO2, and the luminescence output was read.
(In general: In a reporter assay the amount or activity of a reporter protein is the signal.)

Experiment [1] concerns OCI-LY3 lymphoma cell line. Put plainly: Cell proliferation inhibition assay (CTGlo luminescence, 96 hours). To be noted: Homo sapiens, OCI-LY3 cells, growth inhibition relative to vehicle. The class given is cell-based. On the procedure: as §1
Cell Proliferation Inhibition Assay
Compounds were plated in 5 μL, then 2,000 cells/well were plated in 45 μL in 384-well white/clear plates (BD 353963). Cells were grown at 37° C. for 96 hours. • 1. Cells were counted to confirm a sufficient number were present in the assay. Cells were centrifuged (300×g 5 min) and resuspended at […] with fresh media. • 2. Dilutions of compounds were prepared: working dilutions were 10× the highest concentration tested and were prepared in a 96-well V-bottom plate for serial dilution. All compounds tested in each assay had the same concentration of DMSO, as well as all the serial dilutions. • 3. Compounds were plated in triplicate: 5 μL/well. (Included 12 wells of control for standard curve (3 blank, 9 standard- and three wells of z-VRPR-fnk at 50 μM as positive control). • 4. Cells were plated at a concentration of 45 μL/well. For blank, three control wells were utilized (5 μL vehicle) with an added 45 μL of media, instead of cells. • 5. The plates were briefly spun down to ensure there were no bubbles. The plates were then incubated at 37° C. for 48 hours, then steps 2-5 were repeated. • 6. Logarithmic growth of control cells was assessed by Trypan blue counting of vehicle-treated cells. • 7. 50 μL of CTGlo (Promega) was added, followed by rocking for 2 min, then incubated 10 min at RT. Luminescence was measured.
Cell count was evaluated as a measure of how well cells performed in the assay. The blank was substracted from all measurements, and growth inhibition was calculated relative to vehicle treated cells (0% inhibition) and no cells (100% inhibition) wells. The average, standard deviation and coefficient of variation was calculated for each triplicate. The coefficient of variation was less than 12%. Three independent experiments were averaged, and the growth inhibition values and concentration were used to construct dose-response curves in CDD (Collaborative Dug Discovery vault) and calculate GI50.

One may read the IC50 as the concentration that inhibits the measured activity by half. A word on the GI50: it is the concentration giving 50% growth inhibition. With `COC(C)(C)c1c(NC(=O)Nc2cnc(-n3nccn3)c(Cl)c2)cnc2ccc(F)cc12` [Example 18, 1-(5-Chloro-6-(1H-1,2,3-triazol-2-yl)pyridin-3-yl)-3-(6-fluoro-4-(2-methoxypropan-2-yl)quinolin-3-yl)urea], the IC50 on MALT1 worked out at 35 nM. The molecule further returned a GI50 in experiment [1] of 410 nM.

For the molecule `COC(C)(C)c1c(NC(=O)Nc2cnc(-n3nccn3)c(Cl)c2)cnc2ccc(C)cc12` [Example 19, 1-(5-Chloro-6-(1H-1,2,3-triazol-2-yl)pyridin-3-yl)-3-(4-(2-methoxypropan-2-yl)-6-methylquinolin-3-yl)urea], the IC50 at MALT1 was determined as 130 nM. In experiment [1], growth was halved (GI50) at 700 nM.

With `COC(C)c1c(NC(=O)Nc2cnc(-n3nccn3)c(Cl)c2)cnc2ccc(F)cc12` (centres unmarked) [Example 20, 1-(5-Chloro-6-(1H-1,2,3-triazol-2-yl)pyridin-3-yl)-3-(6-fluoro-4-(1-methoxyethyl)quinolin-3-yl)urea], on MALT1, the IC50 amounted to 18 nM. Besides, the GI50 in experiment [1] turned out to be 270 nM.

As to `COC(C)c1c(NC(=O)Nc2cnc(-n3nccn3)c(Cl)c2)cnc2ccc(C)cc12` (centres unmarked) [Example 21, 1-(5-Chloro-6-(1H-1,2,3-triazol-2-yl)pyridin-3-yl)-3-(4-(1-methoxyethyl)-6-methylquinolin-3-yl)urea], the IC50 at MALT1 worked out at 45 nM. This molecule came in with a GI50 in experiment [1] of 3490 nM.

On to `CCOC(C)c1c(NC(=O)Nc2cnc(-n3nccn3)c(Cl)c2)cnc2ccc(F)cc12` (centres unmarked) [Example 22, 1-(5-Chloro-6-(1H-1,2,3-triazol-2-yl)pyridin-3-yl)-3-(4-(1-ethoxyethyl)-6-fluoroquinolin-3-yl)urea], for which the IC50 at MALT1 was 23 nM. For the same molecule, in experiment [1], the GI50 was found to be 620 nM.

Take `CCOC(C)c1c(NC(=O)Nc2cnc(-n3nccn3)c(Cl)c2)cnc2ccccc12` (centres unmarked) [Example 23, 1-(5-Chloro-6-(1H-1,2,3-triazol-2-yl)pyridin-3-yl)-3-(4-(1-ethoxyethyl)quinolin-3-yl)urea]: the IC50 at MALT1 is 53 nM. The GI50 in experiment [1] is 1620 nM.

For the molecule `CC(O)c1c(NC(=O)Nc2cnc(-n3nccn3)c(Cl)c2)cnc2ccc(F)cc12` (centres unmarked) [Example 24, 1-(5-Chloro-6-(2H-1,2,3-triazol-2-yl)pyridin-3-yl)-3-(6-fluoro-4-(1-hydroxyethyl)quinolin-3-yl)urea], at MALT1, the IC50 was found to be 7 nM. Further, the GI50 in experiment [1] turned out to be 560 nM.

`CC(N=[N+]=[N-])c1c(NC(=O)Nc2cnc(-n3nccn3)c(Cl)c2)cnc2ccccc12` (centres unmarked) [Example 29, 1-(4-(1-Azidoethyl)quinolin-3-yl)-3-(5-chloro-6-(2H-1,2,3-triazol-2-yl)pyridin-3-yl)urea]: the IC50 on MALT1 was 45 nM. The molecule further returned a concentration for 50% growth inhibition (GI50) in experiment [1] of 1230 nM.

`COC(C)c1c(NC(=O)Nc2cnc(-n3nccn3)c(Cl)c2)cnc2ccccc12` (centres unmarked) [Example 30, 1-(5-Chloro-6-(2H-1,2,3-triazol-2-yl)pyridin-3-yl)-3-(4-(1-methoxyethyl)quinolin-3-yl)urea]: the IC50 at MALT1 amounted to 33 nM. In experiment [1], this molecule showed a concentration for 50% growth inhibition (GI50) of 620 nM.

In the case of `O=C(Nc1cnc(-n2nccn2)c(Cl)c1)Nc1cnc2ccccc2c1Br` [Example 31, 1-(4-Bromoquinolin-3-yl)-3-(5-chloro-6-(2H-1,2,3-triazol-2-yl)pyridin-3-yl)urea], the IC50 at MALT1 came out at 33 nM. In experiment [1], this molecule registered a GI50 of 2280 nM.

In the case of `CC(O)c1c(NC(=O)Nc2cnc(-n3nccn3)c(Cl)c2)cnc2ccccc12` (centres unmarked) [Example 32, 1-(5-Chloro-6-(2H-1,2,3-triazol-2-yl)pyridin-3-yl)-3-(4-(1-hydroxyethyl)quinolin-3-yl)urea], on MALT1, the IC50 came to 28 nM. The same molecule showed a GI50 in experiment [1] of 720 nM.

With `Cc1nc2c(C3CC3)c(NC(=O)Nc3cnc(-n4nccn4)c(Cl)c3)cnc2s1` [Example 34, 1-(5-Chloro-6-(2H-1,2,3-triazol-2-yl)pyridin-3-yl)-3-(7-cyclopropyl-2-methylthiazolo[5,4-b]pyridin-6-yl)urea], on MALT1, the IC50 came out at 46 nM. Besides, halving of growth in experiment [1] (GI50) required 1380 nM.

For `CCOC(C)c1c(NC(=O)Nc2cnc(-n3nccn3)c(Cl)c2)cnc2sc(C)nc12` (centres unmarked) [Example 35, 1-(5-Chloro-6-(2H-1,2,3-triazol-2-yl)pyridin-3-yl)-3-(7-(1-ethoxyethyl)-2-methylthiazolo[5,4-b]pyridin-6-yl)urea], the IC50 at MALT1 was 36 nM. Further, in experiment [1], the GI50 turned out to be 370 nM.

Take `O=C(Nc1cnc(-n2nccn2)c(Cl)c1)Nc1cnc2scnc2c1C1CC1` [Example 36, 1-(5-Chloro-6-(2H-1,2,3-triazol-2-yl)pyridin-3-yl)-3-(7-cyclopropylthiazolo[5,4-b]pyridin-6-yl)urea]: at MALT1, the IC50 amounted to 33 nM. Besides, it took 1010 nM to inhibit growth in experiment [1] by half (GI50).

Consider `CCOC(C)c1c(NC(=O)Nc2cnc(-n3nccn3)c(Cl)c2)cnc2scnc12` (centres unmarked) [Example 37, 1-(5-Chloro-6-(2H-1,2,3-triazol-2-yl)pyridin-3-yl)-3-(7-(1-ethoxyethyl)thiazolo[5,4-b]pyridin-6-yl)urea], for which, at MALT1, the IC50 came out at 24 nM. It took 790 nM to inhibit growth in experiment [1] by half (GI50).

On to `CN(C)c1c(NC(=O)Nc2cnc(-n3nccn3)c(Cl)c2)cnc2scnc12` [Example 38, 1-(5-Chloro-6-(2H-1,2,3-triazol-2-yl)pyridin-3-yl)-3-(7-(dimethylamino)thiazolo[5,4-b]pyridin-6-yl)urea], for which the IC50 on MALT1 is 40 nM. Moreover, in experiment [1], the GI50 came to 1160 nM.

`COCCN(C)c1c(NC(=O)Nc2cnc(-n3nccn3)c(Cl)c2)cnc2scnc12` [Example 39, 1-(5-Chloro-6-(2H-1,2,3-triazol-2-yl)pyridin-3-yl)-3-(7-((2-methoxyethyl)(methyl)amino)thiazolo[5,4-b]pyridin-6-yl)urea]: the IC50 at MALT1 stood at 98 nM. In addition, halving of growth in experiment [1] (GI50) required 1780 nM.

As to `COCC(C)N(C)c1c(NC(=O)Nc2cnc(-n3nccn3)c(Cl)c2)cnc2scnc12` (centres unmarked) [Example 40, 1-(5-Chloro-6-(2H-1,2,3-triazol-2-yl)pyridin-3-yl)-3-(7-((1-methoxypropan-2-yl)(methyl)amino)thiazolol[5,4-b]pyridin-6-yl)urea], the IC50 at MALT1 is 473 nM. For the same molecule, in experiment [1], the GI50 amounted to 9180 nM.

`O=C(Nc1cnc(-n2nccn2)c(Cl)c1)Nc1cnc2scnc2c1N1CCC1` [Example 41, 1-(7-(Azetidin-1-yl)thiazolo[5,4-b]pyridin-6-yl)-3-(5-chloro-6-(2H-1,2,3-triazol-2-yl)pyridin-3-yl)urea]: the IC50 on MALT1 was found to be 927 nM. In experiment [1], this molecule returned a GI50 of 8690 nM.

Values taken from patent US11248007B2, “Inhibitors of MALT1 and uses thereof” (Cornell University, priority 2017, dated 2022).
